The test system of data set [1] is primary human monocyte-derived macrophages. The data set can be described thus: MIF-mediated DiI-oxLDL uptake / foam cell formation. The class given is cell-based. The following applies: 80 nM MIF; AMD3100 10 µM. The protocol: (§1) After washing with imaging solution (MEM without phenol red containing 30 mM HEPES, 0.5 g/L NaHCO3, pH 7.4, and 0.2% BSA), cells were exposed to 50 µg mL^−1 1,1′-dioctadecyl-3,3,3′3′-tetramethylindocarbocyanine-labeled oxidized LDL (DiI-oxLDL) or DiI-labeled native LDL (DiI-LDL) for 30 min at 4 °C, followed by incubation at 37 °C for 20 min. Cells were washed with ice-cold imaging solution (pH 3.5), fixed, and counter-stained with Hoechst 33258.

For data set [2] the test system is unchanged. The data set can be described thus: MIF-mediated DiI-LDL uptake / foam cell formation. The class given is cell-based. To be noted: 80 nM MIF. As to the method:
as §1

The next data set deals with pAMPK/AMPK in HCM. The data set can be described thus: MIF/CD74-triggered AMPK signaling in human cardiomyocytes (HCM). The class given is cell-based. As to the method:
HCMs (2 × 10^5 per well) were plated in 12-well plates and maintained for 2 days with cultured medium containing 5% FCS. Before stimulation, medium was replaced by fresh myocyte basal medium containing 0.05% FCS and HCMs rested for 16 h. Surface CD74 expression on HCMs was verified by flow cytometry (FITC-conjugated anti-human CD74 (1:100 dilution), FITC-IgG2 (isotype control) (BD Pharmingen), 1 h/4 °C in the dark, BD FACSVerse™ flow cytometer, FlowJo software). […] After treatment, cells were lysed and subjected to SDS-PAGE (10%)/Western blotting using NuPAGE® lithium dodecyl sulfate (LDS)/dithiothreitol (DTT) lysis buffer-containing PhosSTOP^TM reagent (Roche Applied Science). […] Anti-rabbit horse-radish peroxidase (HRP)-conjugated antibody (1:10000, GE Healthcare, Freiburg, Germany) was used for development and signals quantitated by chemiluminescence using an Odyssey® Fc imager. Unprocessed scans of the Western blots are supplied in the Source Data file.

The test system of another data set is MIF/CD74. To be noted: read-out: IC50 value for MIF/CD74 binding; ref [16],[43]; cited from earlier work. The text has this: Specificity of the inhib ...
The nature of data set [3]: in vitro. The following applies: C57/BL6, mouse, plasma.
Experimental: (§2) Mouse plasma was prepared from blood of wildtype C57/BL6 mice by standard procedure. […] Samples were then diluted in 2x Novex Tricine SDS sample buffer (Life Technologies) at a ratio of 1:6, electrophoresed in a 10–20% Tricine gel, and red fluorescent bands directly imaged with an Odyssey® Fc imager. Human plasma was prepared from blood of healthy volunteers by standard procedure.
The nature of data set [4]: in vitro. The following applies: human, plasma.
Experimental: as §2
In data set [5] the test system is primary mouse spleen B lymphocytes. The data set can be described thus: MIF-triggered Transwell chemotaxis of primary splenic B cells.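 Note: migration tracked over 4 h at 37 °C, read out as transmigrated cells counted by flow cytometry with absolute counting beads.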 The class given is cell-based. To be noted: 16 nM MIF; peptide at 5-fold molar excess (80 nM).
Experimental: Briefly, splenic B cells were isolated by negative depletion using a Pan B Cell Isolation Kit (Miltenyi Biotec, Bergisch Gladbach, Germany). […] Chemotaxis was followed for 4 h at 37 °C in a humidified atmosphere of 5% CO2. Migrated cells were counted by flow cytometry using CountBright™ Absolute Counting Beads (Molecular Probes-Invitrogen).
A further data set deals with T1, MIF (Homo sapiens, UniProt P14174).
T1 construct: made in house; host or cells: E. coli BL21/DE3 (pET11b)
T1 sequence (P14174 2-115): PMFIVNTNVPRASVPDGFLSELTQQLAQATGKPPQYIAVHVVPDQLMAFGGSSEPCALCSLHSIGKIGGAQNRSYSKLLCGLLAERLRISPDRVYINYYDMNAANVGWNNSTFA
The data set can be described thus: Fluorescence spectroscopic titration of CXCR4 ectodomain peptides (and ISO-1) with MIF. The class given is binding.

Data set [6] can be described thus: Circular dichroism (CD) spectroscopy (conformation, concentration dependence). It counts as physicochemical. The following applies: far-UV CD at 1-20 µM, 10 mM sodium phosphate pH 7.4, 1% HFIP; region 210-225 nm; compared with msR4M-L1. As to the method:
Briefly, far-UV CD measurements were carried out between 195 and 250 nm. The response time was set at 1 s, intervals at 0.1 nm, and bandwidth at 1 nm. All spectra were measured at RT and represent an average of three recorded spectra. Scans were recorded for the ectodomain mimic peptides at a concentration of 1–20 µM in 10 mM sodium phosphate buffer, pH 7.4, containing 1% HFIP, following dilution of freshly made peptide stock solution in HFIP (4 °C) into the buffer-containing cuvette. […] The background spectrum of buffer/1% HFIP alone was subtracted from the spectra of the peptides.
A general note: CD spectra are sensitive to the conformation of chiral molecules.

Here are results for six molecules from PMC7689490, “Designed CXCR4 mimic acts as a soluble chemokine receptor that blocks atherogenic inflammation by agonist-specific targeting” (Nature Communications, 2020).

The structures appear in SMILES notation. “And” between values parts separate entries of the source, which are not always exact repeats. Equal entries are not always repeated. Where two headings read alike, the source gives them in different places. Where a SMILES comes first, the peptide text is derived from it. Where only a bound is given, the exact number is not on record here.

Experimental for in vivo: Plasma was immediately separated by centrifugation at 3000 rpm for 10 min at 4 °C, and placed on ice protected from light. Plasma aliquots were diluted (1:1) with SDS-PAGE sample buffer, boiled, analyzed in 10–20% Tricine SDS-PAGE gels, and red fluorescent bands imaged by Odyssey® Fc imager.

On to `c1cc(CN2CCCNCCNCCCNCC2)ccc1CN1CCCNCCNCCCNCC1` [AMD3100], for which, in [1], the “effect on MIF-mediated DiI-oxLDL uptake” value is on record as “blocked”. The “DiI-LDL uptake (rel. units), MIF + AMD3100” value in data set [2] (control ~1, MIF alone 2.09-3.63, individual experiments (four-times-two)) is 0.6486 and 2.2972 and 2.822 and 1.2299 and 1.463 and 1.618 and 1.791 and 1.537.

Regarding `COC(=O)CC1CC(c2ccc(O)cc2)=NO1` (centres unmarked) [ISO-1], the “Fig. 4e, Mean Diff, (Tukey's multiple comparisons test)” value was 0.3348 in the data set on pAMPK/AMPK in HCM (B-C: MIF alone vs. MIF + ISO-1 3.1), 0.4593 in the data set on pAMPK/AMPK in HCM (B-D: MIF alone vs. MIF + ISO-1 15.6), 0.6907 in the data set with pAMPK/AMPK in HCM (B-E: MIF alone vs. MIF + ISO-1 31.3) and 0.8729 in the data set with pAMPK/AMPK in HCM (B-F: MIF alone vs. MIF + ISO-1 62.5). In addition, the IC50 with MIF/CD74 was 10 µM.

`CC[C@H](C)[C@H](NC(=O)[C@H](Cc1ccc(O)cc1)NC(=O)[C@H](CCCNC(=N)N)NC(=O)[C@H](CC(=O)O)NC(=O)CCCCCCCCCCCNC(=O)CCCCCNC(=O)[C@H](CCCCN)NC(=O)[C@H](CS)NC(=O)[C@H](CC(C)C)NC(=O)[C@H](Cc1ccccc1)NC(=O)[C@H](CC(N)=O)NC(=O)CNC(=O)[C@H](Cc1ccccc1)NC(=O)[C@H](Cc1ccc(O)cc1)NC(=O)[C@H](Cc1c[nH]c2ccccc12)NC(=O)[C@H](CC(N)=O)NC(=O)[C@H](C)NC(=O)[C@@H](NC(=O)[C@H](C)NC(=O)[C@H](CC(=O)O)NC(=O)c1ccc2c(c1)C(=O)OC21c2ccc(N(C)C)cc2Oc2cc(N(C)C)ccc21)C(C)C)C(=O)N[C@@H](CS)C(=O)N[C@@H](CC(=O)O)C(=O)N[C@@H](CCCNC(=N)N)C(=O)N[C@@H](Cc1ccccc1)C(=O)N[C@@H](Cc1ccc(O)cc1)C(=O)N1CCC[C@H]1C(=O)N[C@@H](CC(N)=O)C(=O)N[C@@H](CC(=O)O)C(=O)N[C@@H](CC(C)C)C(=O)N[C@@H](Cc1c[nH]c2ccccc12)C(=O)N[C@H](C(N)=O)C(C)C` [TAMRA-msR4M-L1] came in with a level at 24 h in the data set “in vivo” (C57/BL6, mouse, 50 ug) above 100 ng/mL. The molecule also showed a level at 48 h in the data set “in vivo” (C57BL/6, mouse, ip, 50 ug per mouse) of around 100 ng/mL. Besides, the half-life at 482 nM in “in vitro [3]” is around 20 h.

Regarding `CC[C@H](C)[C@H](NC(=O)[C@H](Cc1ccc(O)cc1)NC(=O)[C@H](CCCNC(=N)N)NC(=O)[C@H](CC(=O)O)NC(=O)CCCCCCCCCCCNC(=O)CCCCCNC(=O)[C@H](CCCCN)NC(=O)[C@H](CS)NC(=O)[C@H](CC(C)C)NC(=O)[C@H](Cc1ccccc1)NC(=O)[C@H](CC(N)=O)NC(=O)CNC(=O)[C@H](Cc1ccccc1)NC(=O)[C@H](Cc1ccc(O)cc1)NC(=O)[C@H](Cc1c[nH]c2ccccc12)NC(=O)[C@H](CC(N)=O)NC(=O)[C@H](C)NC(=O)[C@@H](NC(=O)[C@H](C)NC(=O)[C@H](CC(=O)O)NC(=O)CCCCCNC(=O)CCCC[C@@H]1SC[C@@H]2NC(=O)N[C@@H]21)C(C)C)C(=O)N[C@@H](CS)C(=O)N[C@@H](CC(=O)O)C(=O)N[C@@H](CCCNC(=N)N)C(=O)N[C@@H](Cc1ccccc1)C(=O)N[C@@H](Cc1ccc(O)cc1)C(=O)N1CCC[C@H]1C(=O)N[C@@H](CC(N)=O)C(=O)N[C@@H](CC(=O)O)C(=O)N[C@@H](CC(C)C)C(=O)N[C@@H](Cc1c[nH]c2ccccc12)C(=O)N[C@H](C(N)=O)C(C)C` [biotin-msR4M-L1], the amount remaining at 16 h, 13.7 µM in the data set “in vitro [4]” was around 45%.

`CC[C@H](C)[C@H](NC(=O)[C@H](Cc1ccc(O)cc1)NC(=O)[C@H](CCCNC(=N)N)NC(=O)[C@H](CC(=O)O)NC(=O)CCCCCCCCCCCNC(=O)CCCCCNC(=O)[C@H](CCCCN)NC(=O)[C@H](CS)NC(=O)[C@H](CC(C)C)NC(=O)[C@H](C)NC(=O)[C@H](CC(N)=O)NC(=O)CNC(=O)[C@H](C)NC(=O)[C@H](C)NC(=O)[C@H](C)NC(=O)[C@H](CC(N)=O)NC(=O)[C@H](C)NC(=O)[C@@H](NC(=O)[C@H](C)NC(=O)[C@@H](N)CC(=O)O)C(C)C)C(=O)N[C@@H](CS)C(=O)N[C@@H](CC(=O)O)C(=O)N[C@@H](CCCNC(=N)N)C(=O)N[C@@H](C)C(=O)N[C@@H](C)C(=O)N1CCC[C@H]1C(=O)N[C@@H](CC(N)=O)C(=O)N[C@@H](CC(=O)O)C(=O)N[C@@H](CC(C)C)C(=O)N[C@@H](C)C(=O)N[C@H](C(N)=O)C(C)C` [msR4M-L1(7xAla)] (HELM PEPTIDE1{D.A.V.A.N.A.A.A.G.N.A.L.C.K.[O=C(CCCCCN[*:1])[*:2]].[O=C(CCCCCCCCCCCN[*:1])[*:2]].D.R.Y.I.C.D.R.A.A.P.N.D.L.A.V.[am]}$$$$V2.0): the “inhibition of MIF-mediated B-cell chemotaxis” value in data set [5] is listed as “failed to inhibit”. Moreover, the Kd on MIF was above 1 µM; on MIF (App. Kd Fluos-peptide/MIF, 1st curve, fluorescence spectroscopy, replicate 1) it was above 1 µM; on MIF (App. Kd Fluos-peptide/MIF, 2nd curve, fluorescence spectroscopy, replicate 2) it was above 1 µM; on MIF (App. Kd Fluos-peptide/MIF, 3rd curve, fluorescence spectroscopy, replicate 3), above 1 µM; at MIF (app. KD Fluos-labeled alanine analog/MIF, fluorescence titration spectroscopy, n=3), above 1 µM. Further, the “inhibition of MIF-mediated DiI-LDL uptake” value in data set [2] is “failed to inhibit”.

As to `CC[C@H](C)[C@H](NC(=O)[C@H](Cc1ccc(O)cc1)NC(=O)[C@H](CCCNC(=N)N)NC(=O)[C@H](CC(=O)O)NC(=O)CCCCCCCCCCCNC(=O)COCCOCCNC(=O)[C@H](CCCCN)NC(=O)[C@H](CS)NC(=O)[C@H](CC(C)C)NC(=O)[C@H](Cc1ccccc1)NC(=O)[C@H](CC(N)=O)NC(=O)CNC(=O)[C@H](Cc1ccccc1)NC(=O)[C@H](Cc1ccc(O)cc1)NC(=O)[C@H](Cc1c[nH]c2ccccc12)NC(=O)[C@H](CC(N)=O)NC(=O)[C@H](C)NC(=O)[C@@H](NC(=O)[C@H](C)NC(=O)[C@@H](N)CC(=O)O)C(C)C)C(=O)N[C@@H](CS)C(=O)N[C@@H](CC(=O)O)C(=O)N[C@@H](CCCNC(=N)N)C(=O)N[C@@H](Cc1ccccc1)C(=O)N[C@@H](Cc1ccc(O)cc1)C(=O)N1CCC[C@H]1C(=O)N[C@@H](CC(N)=O)C(=O)N[C@@H](CC(=O)O)C(=O)N[C@@H](CC(C)C)C(=O)N[C@@H](Cc1c[nH]c2ccccc12)C(=O)N[C@H](C(N)=O)C(C)C` [msR4M-L2], in data set [6], the “aggregation propensity from concentration-dependent CD signal” value is given as “higher aggregation propensity”. Besides, the “inhibition of MIF-mediated B-cell chemotaxis” value in data set [5] is given as “fully blocked”.

The half-life is the time in which the quantity being followed falls by half. Lower therefore signals rapid decline. The amount remaining is the share of the starting amount still present when the sample was taken. Higher therefore signals greater stability.
